This passage reports MIC, anti-fungal activities and Solubility results from patent US5840927A, “Sesquiterpene compounds” (Toa Gosei Co., Ltd., priority 1995, dated 1998).

Values after ≈ are worked out from the molar mass of the structure shown.

Data set [1] concerns Candida albicans TIMM1623. The experiment in a line: MIC assay of anti-fungal activity in vitro, Candida albicans TIMM1623. Type of data set: cell-based. Particulars: 24 h, C. albicans TIMM1623, Yeast Morphology Ager, serial double dilution, 30° C., 1 day. As to the method: (§1) In the following, examples of anti-fungal assays are described.
(§2) In the assay standard microbial strains supplied from Research Center for Eumyceta and Mycosis, Teikyo University, Japan, were used as the test fungi, and Yeast Morphology Ager (DIFCO) was used as the medium for the drug sensitivity assays.
(§3) Firstly, the given fungus was smeared on the potato-dextrose agar media (Nissui Seiyaku) slants, incubated at 30° C. for 1 day (for Candida albicans and Cryptococcus neoformans) or for 4 days (for Aspergillus nigar and Aspergillus fumigatus), and then the fungus grown on the slant was washed out with a sterilized physiological salt solution containing 0.1% Tween 80. The washed out fungus was passed through a filter with 15 μm bores, and, after the number of fungus colonies were counted on the blood cell counting plate, a suspension containing 10^5 CFU/ml of fungus was prepared to be used as the inoculation solution. After this solution (0.02 ml) was inoculated to Yeast Morphology Ager containing a drug at concentrations in a serial double dilution, it was cultured at 30° C. for either 1 day or 4 days.
(§4) MIC assay of cryptoporic acid H was carried out by the similar procedure as described above.

Data set [2] concerns Aspergillus niger TIMM0113. The experiment in a line: MIC assay of anti-fungal activity in vitro, Aspergillus niger TIMM0113. Type of data set: cell-based. Particulars: 96 h, A. niger TIMM0113, Yeast Morphology Ager, serial double dilution, 30° C., 4 days. How it is done:
as §1, §2, §3, §4

For data set [3], the system named is Aspergillus fumigatus TIMM0063. The data set is described as follows: MIC assay of anti-fungal activity in vitro, Aspergillus fumigatus TIMM0063. It is filed as cell-based. The settings on record: 96 h, A. fumigatus TIMM0063, Yeast Morphology Ager, serial double dilution, 30° C., 4 days. How it is done:
as §1, §2, §3, §4

The test system of data set [4] is Saccharomyces cerevisiae JCM2216. The experiment in a line: MIC assay, Saccharomyces cerevisiae JCM2216. It is filed as cell-based. The settings on record: similar procedure as described above.
Another data set has as its system C. neoformans TIMM0354. The data set is described as follows: MIC assay of anti-fungal activity in vitro, Cryptococcus neoformans TIMM0354. It is filed as cell-based. Particulars: 24 h, Yeast Morphology Ager, serial double dilution, 30° C., 1 day. How it is done: as §1, §2, §3
The subject of data set [5] is Candida albicans, Cryptococcus neoformans, Aspergillus nigar and Aspergillus fumigatus. The data set is described as follows: anti-microbial activity in vitro against test fungi (overall statement). It is filed as cell-based. Particulars: stated in words. How it is done:
as §1, §2, §3

A further data set can be described thus: Solubility. Type of data set: physicochemical.
Where [6] appears, read: in methanol, acetone, and ethyl acetate.

As to `C=C1CC[C@H]2C(C)(C)CCC[C@]2(C)[C@H]1COC(C(=O)O)C(CC(=O)O)C(=O)O` (some centres unmarked) [Cryptoporic acid H, cryptoporic acid H], the MIC in data set [1], in data set [2], in data set [3] and in data set [4] was 200 µg/mL (≈ 504 µM) each time.
With `C=C1CC[C@H]2C(C)(C)CCC[C@]2(C)[C@H]1COC(C(=O)OC)C(CC(=O)O)C(=O)O[C@H]1CC(C)(C)[C@@H]2CC=C(C=O)[C@H](C=O)[C@@]2(C)C1` (some centres unmarked) [TG101], the MIC in data set [1] is 100 µg/mL (≈ 156 µM); with C. neoformans TIMM0354, 50 µg/mL (≈ 77.8 µM); in data set [2], 50 µg/mL (≈ 77.8 µM); in data set [3] it was 50 µg/mL (≈ 77.8 µM). Moreover, the anti-fungal activities entry in data set [5] was “confirming their anti-fungal activities”. Further, the Solubility result in “Solubility” (in chloroform) is given as “soluble”; in the data set “Solubility” (setting [6]), “readily soluble”; in “Solubility” (in water), “slightly soluble”.
Regarding `C=C1CC[C@H]2C(C)(C)CCC[C@]2(C)[C@H]1COC(C(=O)O[C@H]1CC(C)(C)[C@@H]2CC=C(C=O)[C@H](C=O)[C@@]2(C)C1)C(CC(=O)O)C(=O)OC` (some centres unmarked) [TG102], the Solubility result was “soluble” in “Solubility” (in chloroform), “readily soluble” in “Solubility” (setting [6]) and “slightly soluble” in “Solubility” (in water).
Turning to `C=C1CC[C@H]2C(C)(C)CCC[C@]2(C)[C@H]1COC(C(=O)OC)C(CC(=O)O)C(=O)O[C@H]1CC(C)(C)[C@@H]2CC=C3COC(O)[C@@H]3[C@@]2(C)C1` (some centres unmarked) [TG103], the MIC in data set [1] stood at 100 µg/mL (≈ 155 µM); in the data set with C. neoformans TIMM0354 it was 50 µg/mL (≈ 77.5 µM); in data set [2], 100 µg/mL (≈ 155 µM); in data set [3], 25 µg/mL (≈ 38.8 µM). Further, the anti-fungal activities result in data set [5] is listed as “confirming their anti-fungal activities”. Further, the Solubility result in “Solubility” (in chloroform) is “soluble”; in the data set “Solubility” (setting [6]), “readily soluble”; in the data set “Solubility” (in water), “slightly soluble”.
Consider `C=C1CC[C@H]2C(C)(C)CCC[C@]2(C)[C@H]1COC(C(=O)O[C@H]1CC(C)(C)[C@@H]2CC=C3COC(O)[C@@H]3[C@@]2(C)C1)C(CC(=O)O)C(=O)OC` (some centres unmarked) [TG104], for which the Solubility result is “soluble” in “Solubility” (in chloroform), “readily soluble” in “Solubility” (setting [6]) and “slightly soluble” in “Solubility” (in water).
